Measured values published in patent US11478474B2, “2-(3′-(hydroxymethyl)-1-methyl-5-((5-(2-methyl-4-(oxetan-3-yl)piperazin-1-yl)pyridin-2-yl)amino)-6-oxo-1,6-dihydro-[3,4′-bipyridin]-2′-yl)-7,7-dimethyl-7,8-dihydro-2H-cyclopenta[4,5]pyrrolo[1,2-a]pyrazin-1(6H)-one as a BTK inhibitor” (HUTCHISON MEDIPHARMA LIMITED, priority 2020, dated 2022).

Tests used:
[1] = Stability test in liver microsomes (mouse); type: in vitro ADME; settings: mouse liver microsomes 0.5 mg/mL, compound 1 μM, 37° C.
Source text: (§1) Example 5 Stability Test in Liver Microsomes
(§2) Both male CD-1 mouse pooled liver microsomes and male SD rat pooled liver microsomes were purchased from BioreclamationIVT Corporation, USA.
(§3) Phenacetin, glucose-6-phosphate dehydrogenase (G-6-PDH) and nicotinamide adenine dinucleotide phosphate (NADP) were all purchased from Sigma-Aldrich Corporation, USA. Glucose-6-phosphate (G-6-P) was purchased from Shanghai Eybridge Chemical Technology Co., Ltd.
(§4) Ten mM test compound stock solution: a certain amount of test compound was weighed, and dissolved with an appropriate volume of DMSO to prepare a stock solution with a concentration of 10 mM for use.
(§5) Reaction stopping solution: an appropriate amount of internal standard compound phenacetin was dissolved in acetonitrile to prepare a reaction stopping solution with a concentration of 1000 ng/mL for use at room temperature.
(§6) The test compound stock solution was diluted with an organic solvent (usually a mixture of acetonitrile, methanol and water with various ratios, depending on the solubility of the compound, if necessary, 1 N hydrochloric acid or 1 N sodium hydroxide would be added to facilitate solubilization) to the 0.1 mM (the final concentration of the compound in the reaction system was 1 μM) and the concentration percentage of the organic solvents in the incubation system no more than 1% (wherein the percentage of DMSO was required to be no more than 0.1%). An appropriate amount of 100 mM NADP, 500 mM G-6-P and 100 Unit/mL G-6-PDH were mixed and diluted with ultrapure water (the final system contains 1 mM NADP, 5 mM G-6-P and 1 Unit/mL G-6-PDH), pre-incubated in a 37° C. water bath for 10 minutes and then placed on ice for use as a NADPH regeneration solution. 20 mg/mL liver microsomes solution and 200 mM phosphate buffer was mixed, and diluted with ultrapure water to give a liver microsomes solution containing 2.5 mg/mL liver microsomes (the final concentration of the reaction system is 0.5 mg/mL) and 50 mM phosphate buffer. The diluted liver microsomes solution was mixed with 0.1 mM compound solution, a mixture of 100 mM EDTA, 300 mM MgCl2 solution, 200 mM phosphate buffer (the final system was 3 mM MgCl2, 1 mM EDTA and 50 mM phosphate buffer) and water in an appropriate volume was added. Finally, the NADPH regeneration solution was added, then the reaction solution was placed in a 37° C. water bath to start the reaction (the reaction time was 30 minutes), and the reaction was stopped by adding the ice-cold acetonitrile reaction stopping solution containing the internal standard. The 0-minute sample was not incubated in a 37° C. water bath, and its difference from the 30-minute sample further lies in that the ice-cold acetonitrile reaction stopping solution containing the internal standard was added first, and then the NADPH regeneration solution was added. The sample added with the reaction stopping internal standard solution was vortexed and mixed well, and then centrifuged at 4400 rpm for 10 minutes. The supernatant was taken and diluted ten times with 50% methanol for LC-MS/MS analysis.
(§7) LC-MS/MS was used to determine the concentration of the compound in the sample. The percentage of the remaining compound after 30 minutes of incubation comparing with that in the 0-minute sample was calculated using the peak area ratio of the compound to the internal standard as an indicator, to evaluate the metabolic stability of the compound.
(§8) Instrument: API4500, API4000 or LTQ Mass Spectrometer; the liquid phase is UHPLC system (Shimadzu LC-30 AD, model Nexra X2) including liquid delivery unit, column thermostat, detector and autosampler; or Agilent 1200 Binary Pump series HPLC and CTC Autosampler.
(§9) Chromatographic column: Waters XSELECT Hss T3 C18 (2.5 μm, 2.1×50 mm) or […] (5 μm, 2.0×50 mm)
(§10) A: water with 0.1% FA (formic acid) (with or without 0.1% ACN (acetonitrile))
(§11) B: acetonitrile with 0.1% FA (formic acid).

[2] = Stability test in liver microsomes (rat); type: in vitro ADME; settings: for stability in rat & mouse liver microsomes compared with the reference GDC-0853: 30 minutes; for RLM (percentage of the remaining compound after 30 minutes of incubation): rat liver microsomes 0.5 mg/mL, compound 1 μM, 37° C.
Source text: as §1, §2, §3, §4, §5, §6, §7, §8, §9, §10, §11

[3] = test system: B cell activation in mouse whole blood induced by anti-IgD antibodies; experiment: In vivo efficacy of the inhibitory effect on BTK target (anti-IgD antibody-induced B cell activation in mice whole blood after in vivo administration); settings: 5 mg/kg, mice whole blood, anti-IgD antibody; for Inhibition ratio (%) on B cell activation: 16 hours after administration
Description: Objects: B cells in mice whole blood were induced and activated by the anti-IgD antibody, and the inhibitory effect of the compound of the present invention on B cell activation in vivo was studied, so as to determine the inhibitory effect of the compound of the present invention on the BTK target in vivo.
Methods: C57BL/6 mice (female, 18-20 g, purchased from Shanghai Lingchang Biotechnology Co., Ltd.) were grouped according to Table 2.
The animals of each group were administered, then were placed in CO2 for anesthesia at designated time points, blood samples were taken from […] via retro-orbital bleeding, and heparin was used for anticoagulation; 90 μL of whole blood was taken from mice of each group, and added to a 96 well culture plate, and anti-mouse IgD antibody (BIO-RAD, Cat #MCA4693) was added to each well to a final concentration of 0.01 μg/μL (respectively for the each drug-treated group and anti-IgD antibody-inducted vehicle group); in addition, 90 μL of whole blood of mice in the vehicle group was taken and added to the 96-well culture plate, and PBS (phosphate buffer, GIBCO, Cat #C20012500BT) was added to each well to a final concentration of 0.01 μg/μL (namely, the vehicle control group); Each group was mixed well and incubated in a 37° C./5% CO2 incubator for 4 hours. In addition, the blood of mice in the drug-treated group was centrifuged to separate plasma for blood concentration analysis.
Calculation for B Cell Activation Ratio: B cell activation ratio=percentage of CD69+CD19+double positive B cells/percentage of CD19+single positive B cells
Calculation for Inhibition Ratio: Inhibition ratio=(percentage of B cell activation ratio in anti-IgD antibody-induced vehicle group-percentage of B cell activation ratio in drug-treated group)/(percentage of B cell activation ratio in anti-IgD antibody-induced vehicle group-percentage of B cell activation ratio in vehicle control group)×100%
All data are represented by mean±standard error. For the comparison between each drug-treated group and the anti-IgD antibody-induced vehicle group, p value was calculated by Graphpad Prism using one-way ANOVA analysis of variance and Dunnett's test, and for the comparison between each drug-treated group, p value was calculated by using unpaired t test.

| Structure (SMILES) | MLM (percentage of the remaining compound after 30 minutes of incubation) [1] [%] | stability in rat & mouse liver microsomes compared with the reference GDC-0853 [2] | RLM (percentage of the remaining compound after 30 minutes of incubation) [2] [%] | B cell activation ratio (the proportion of activated B cells to total B cells) ([3]; 16 h after administration, mean±standard error) | Inhibition ratio (%) on B cell activation ([3]; listed as Compound 19) [%] | Inhibition ratio (%) on B cell activation ([3]; listed as compound 19) [%] |
| --- | --- | --- | --- | --- | --- | --- |
| CC1CCc2cc3c(=O)n(-c4nccc(-c5cc(Nc6ccc(N7CCN(C8COC8)C[C@@H]7C)cn6)c(=O)n(C)c5)c4CO)ccn3c2C1 (mixture of isomers) [Compound 78] | 83.4 | better than that of the reference GDC-0853 | 91.8 | – | – | – |
| C[C@@H]1CN(c2ccc(Nc3cc(-c4ccnc(-n5ccn6c7c(cc6c5=O)CCC7)c4CO)cn(C)c3=O)nc2)[C@@H](C)CN1C1COC1 [Compound 2, 2-(5-((5-((2S,5R)-2,5-dimethyl-4-(oxetan-3-yl)piperazin-1-yl)pyridin-2-yl)amino)-3′-(hydroxymethyl)-1-methyl-6-oxo-1,6-dihydro-[3,4′-bispyridin]-2′-yl)-7,8-dihydro-2H-cyclopenta[4,5]pyrrolo[1,2-a]pyrazin-1(6H)-one] | 90.5 | better than that of the reference GDC-0853 | 98.9 | – | – | – |
| Cn1cc(-c2ccnc(-n3ccn4c5c(cc4c3=O)CC(C)(C)C5)c2CO)cc(Nc2ccc(N3CCN(C4COC4)CC3)cn2)c1=O [Compound 9] | 95.7 | better than that of the reference GDC-0853 | 89.5 | – | – | – |
| C[C@H]1CN(C2COC2)CCN1c1ccc(Nc2cc(-c3ccnc(-n4ccn5c6c(cc5c4=O)CC(C)(C)C6)c3CO)cn(C)c2=O)nc1 [Compound 19] | 91.8 | better than that of the reference GDC-0853 | 92.7 | 8.3 ± 1.2 | 80 | 80 |
| C[C@H]1CN(C2COC2)CCN1c1ccc(Nc2cc(-c3ccnc(-n4ccn5c6c(cc5c4=O)CC(C)(C)C6)c3CO)nn(C)c2=O)nc1 [Compound 22] | 83.4 | better than that of the reference GDC-0853 | 95.6 | – | – | – |
| C[C@H]1CN(C2COC2)CCN1c1cnc(Nc2cc(-c3ccnc(-n4ccn5c6c(cc5c4=O)CC(C)(C)C6)c3CO)cn(C)c2=O)nc1 [Compound 44] | 93.1 | better than that of the reference GDC-0853 | 97.1 | – | – | – |
| C[C@H]1CN(C2COC2)CCN1c1ccc(Nc2cc(-c3ccnc(-n4ccn5c6c(cc5c4=O)CCC(F)(F)C6)c3CO)cn(C)c2=O)nc1 [Compound 56] | 89.5 | better than that of the reference GDC-0853 | 93.7 | – | – | – |
| C[C@H]1CN(C2COC2)CCN1c1ccc(Nc2cc(-c3ccnc(-n4ccn5c6c(cc5c4=O)CC(F)(F)CC6)c3CO)cn(C)c2=O)nc1 [Compound 58] | 97.1 | better than that of the reference GDC-0853 | ~100 | – | – | – |
| C[C@H]1CN(C2COC2)CCN1c1ccc(Nc2cc(-c3ccnc(-n4cnn5c6c(cc5c4=O)CC(C)(C)C6)c3CO)cn(C)c2=O)nc1 [Compound 63] | 85.8 | better than that of the reference GDC-0853 | 89.6 | – | – | – |
| C[C@H]1CN(C2COC2)CCN1c1ccc(Nc2cc(-c3ccnc(-n4ccn5c6c(cc5c4=O)CCC6)c3CO)cn(C)c2=O)nc1 [Compound 64] | 95.6 | better than that of the reference GDC-0853 | 92.1 | – | – | – |
| C[C@H]1CN(C2COC2)CCN1c1ccc(Nc2cc(-c3ccnc(-n4ccn5c(cc6ccccc65)c4=O)c3CO)cn(C)c2=O)nc1 [Compound 74] | 97.5 | better than that of the reference GDC-0853 | 87.7 | – | – | – |
| C[C@H]1CN(C2COC2)CCN1c1ccc(Nc2cc(-c3ccnc(-n4ccn5c(cc6cc(F)ccc65)c4=O)c3CO)cn(C)c2=O)nc1 [Compound 75] | 83.0 | better than that of the reference GDC-0853 | 84.0 | – | – | – |
| C[C@H]1CN(C2COC2)CCN1c1ccc(Nc2cc(-c3ccnc(-n4ncn5c6c(cc5c4=O)CC(C)(C)C6)c3CO)cn(C)c2=O)nc1 [Compound 79] | ~100 | better than that of the reference GDC-0853 | ~100 | – | – | – |
